What was measured:
Type in all cases: in vivo
[1] = system: Heliothis virescens (Tobacco Budworm); assay: Heliothis virescens egg test on artificial diet; details: for % Control at 12.5 ppm, Heliothis virescens / % Control at 200 ppm, Heliothis virescens: enantiomer comparison, 4 days incubation
Method: Heliothis virescens (Tobacco Budworm): Eggs (0-24 h old) were placed in 24-well microtiter plate on artificial diet and treated with test solutions at an application rate of 200 ppm (concentration in well 18 ppm) by pipetting. After an incubation period of 4 days, samples were checked for egg mortality, larval mortality, and growth regulation. Heliothis virescens (Tobacco Budworm): Eggs (0-24 h old) were placed in 24-well microtiter plate on artificial diet and treated with test solutions at an application rate starting at 200 ppm (concentration in well 18 ppm) by pipetting. After an incubation period of 4 days, samples were checked for egg mortality, larval mortality, and growth regulation.

[2] = system: Plutella xylostella (Diamond Back Moth); assay: Plutella xylostella L2 larvae test on artificial diet; details: enantiomer comparison, 6 days incubation
Method: […] After drying, the MTP's were infested with L2 larvae (7-12 per well). After an incubation period of 6 days, samples were checked for larval mortality and growth regulation. […] After drying, the MTPs were infested with L2 larvae (7-12 per well). After an incubation period of 6 days, samples were checked for larval mortality and growth regulation.

[3] = system: Diabrotica balteata (Corn Root Worm); assay: Diabrotica balteata L2 larvae test on artificial diet; details: for % Control at 12.5 ppm, Diabrotica balteata / % Control at 200 ppm, Diabrotica balteata: enantiomer comparison, 5 days incubation; for Control, Diabrotica balteata (Corn root worm): application rate 12 ppm
Method: Diabrotica balteata (Corn Root Worm): A 24-well microtiter plate (MTP) with artificial diet was treated with test solutions at an application rate of 200 ppm (concentration in well […]) by pipetting. After drying, the MTP's were infested with L2 larvae (6-10 per well). After an incubation period of 5 days, samples were checked for larval mortality and growth regulation. Diabrotica balteata (Corn Root Worm): A 24-well microtiter plate (MTP) with artificial diet was treated with test solutions at an application rate of 12.5 ppm (concentration in well […]) by pipetting. After drying, the MTP's were infested with L2 larvae (6-10 per well). After an incubation period of 5 days, samples were checked for larval mortality and growth regulation.

[4] = system: Thrips tabaci (Onion Thrips); assay: Thrips tabaci sunflower leaf disc spray test; details: enantiomer comparison, 7 days incubation
Method: Thrips tabaci (Onion Thrips): Sunflower leaf discs were placed on agar in a 24-well microtiter plate and sprayed with test solutions at an application rate of 200 ppm. After drying, the leaf discs were infested with a thrip population of mixed ages. After an incubation period of 7 days, samples were checked for mortality. Thrips tabaci (Onion Thrips): Sunflower leaf discs were placed on agar in a 24-well microtiter plate and sprayed with test solutions at an application rate of 50 ppm. After drying, the leaf discs were infested with a thrip population of mixed ages. After an incubation period of 7 days, samples were checked for mortality.

[5] = system: Tetranychus urticae (Two-Spotted Spider Mite); assay: Tetranychus urticae bean leaf disc spray test; details: for % Control at 12.5 ppm, Tetranychus urticae / % Control at 200 ppm, Tetranychus urticae: enantiomer comparison, checked 8 days later; for Control, Tetranychus urticae (Two-spotted spider mite): application rate 12 ppm
Source text: […] After drying, the leaf discs are infested with mite populations of mixed ages. 8 days later, discs are checked for egg mortality, larval mortality, and adult mortality. […] After drying, the leaf discs are infested with mite populations of mixed ages. 8 days later, discs are checked for egg mortality, larval mortality, and adult mortality.

[6] = system: Spodoptera littoralis (Egyptian Cotton Leaf Worm); assay: Spodoptera littoralis (systemic) test via salad grown on treated agar; details: 5 days after infestation
Source text: Spodoptera littoralis (Systemic) (Egyptian Cotton Leaf Worm) Test compounds were applied by pipette into 24 well plates and mixed with agar. Salad seeds were placed on the agar and the multi well plate is closed by another plate which contains also agar. After 7 days the roots have absorbed the compound and the salad has grown into the lid plate. The salad leafs were now cut off into the lid plate. Spodoptera eggs were pipette through a plastic stencil on a humid gel blotting paper and the plate closed with it. The samples are checked for mortality, repellent effect, feeding behavior, and growth regulation 5 days after infestation.

Compound	% Control at 12.5 ppm, Heliothis virescens [1] [%]	% Control at 200 ppm, Heliothis virescens [1] [%]	% Control at 12.5 ppm, Plutella xylostella [2] [%]	% Control at 200 ppm, Plutella xylostella [2] [%]	% Control at 12.5 ppm, Diabrotica balteata [3] [%]	% Control at 200 ppm, Diabrotica balteata [3] [%]	% Control at 200 ppm, Thrips tabaci [4] [%]	% Control at 12.5 ppm, Tetranychus urticae [5] [%]	% Control at 200 ppm, Tetranychus urticae [5] [%]	% Control at 12.5 ppm, Spodoptera littoralis [6] [%]	% Control at 200 ppm, Spodoptera littoralis [6] [%]	Control, Heliothis virescens (Tobacco budworm) ([1]; application rate 0.8 ppm) [%]	Control, Diabrotica balteata (Corn root worm) [3] [%]	Control, Tetranychus urticae (Two-spotted spider mite) [5] [%]	Control, Heliothis virescens (Tobacco budworm) ([1]; application rate 3 ppm) [%]
Cc1cc(N2CCC(c3cc(Cl)cc(Cl)c3)(C(F)(F)F)C2)ccc1C(=O)NC1CS(=O)(=O)C1 (single isomer, unassigned) [Compound A5a]	100	100	100	100	100	100	90	100	100	100	100	–	–	–	–
Cc1cc(N2CCC(c3cc(Cl)cc(Cl)c3)(C(F)(F)F)C2)ccc1C(=O)NC1C[S+]([O-])C1 (centres unmarked) [Compound A1]	–	–	–	–	–	–	–	–	–	–	–	100	80	100	–
Cc1cc(N2CCC(c3cc(Cl)cc(Cl)c3)(C(F)(F)F)C2)ccc1C(=O)NC1CS(=O)(=O)C1 (centres unmarked) [Compound A5]	–	–	–	–	–	–	–	–	–	–	–	–	100	100	80
Cc1cc(N2CCC(c3cc(Cl)cc(Cl)c3)(C(F)(F)F)C2)ccc1C(=O)NC1CSC1 (centres unmarked) [Compound A4]	–	–	–	–	–	–	–	–	–	–	–	–	100	100	80
Cc1cc(N2CCC(c3cc(Cl)cc(Cl)c3)(C(F)(F)F)C2)ccc1C(=O)NC1CS(=O)(=O)C1 (single isomer, unassigned) [Compound A5b]	0	100	0	100	0	0	0	0	0	0	100	–	–	–	–
Cc1cc(N2CCC(c3cc(Cl)cc(Cl)c3)(C(F)(F)F)C2)ccc1C(=O)NCc1ccccn1 (centres unmarked) [Compound 1-4 of WO08128711, reference compound]	–	–	–	–	–	–	–	–	–	–	–	0	0	0	50

Reference: US8957058B2, “Insecticidal pyrrolidin-yl-aryl-carboxamides” (Syngenta Participations AG, priority 2010, dated 2015)
